Legend:
[1] = tested on: M. paratuberculosis strain K-10; experiment: Susceptibility of growing and non-growing M. paratuberculosis in broth culture to antimicrobial agents; assay type: cell-based, Mycobacterium paratuberculosis
Protocol: Antimicrobial agents (antibiotics) tested were the fluoroquinolone Bay y 3118, and D-cycloserine. The aminoglycoside amikacin which kills both growing and non-growing M. paratuberculosis, was included as a control. M. paratuberculosis strain K-10 was grown in complete Middlebrook 7H9 medium containing mycobactin J as described above to an optical density (OD600) of 0.3 to 0.4. For non growing conditions, cells (200 ml) were harvested at room temperature, washed in MSS (Middlebrook 7H9 salt solution: 1.0 g/L KH2PO4, 0.05 g/L MgSO4, NH4SO4, 2.5 g/L Na2HPO4, 0.0005 g/L CaCl2, 0.001 g/L ZnSO4, and 0.001 g/L CuSO4), and resuspended in MSS as a single-cell suspension (Williams et al., J. Clin. Microbiol., 37:304-309, 1999). Aliquots (10 ml at a cell density of 2×10^8 CFU/mL) were placed in sterile tissue culture flasks, and antibiotics were added at the following final concentrations Bay y 3118: 0.075 μg/mL (5×MIC) and 0.3 μg/mL (20×MIC); D-cyloserine: 125 μg/mL (5×MIC) and 500 μg/mL (20×MIC); amikacin: 10 μg/mL (5×MIC), and 40 μg/mL (20×MC). These cultures and a control without antibiotics (0×) were incubated at 37° C. and appropriate dilutions were plated in triplicate onto complete Middlebrook 7H9 medium at various time points. […] For growing conditions, cells were treated as described except that the growth control (0×) was diluted 1:10 and all cells were washed and resuspended in complete medium instead of MSS. The cells were also inoculated into MSS (no-growth control).

[2] = tested on: Mycobacterium avium within human macrophages; details: reported by Bermudez et al., 1999; cited from earlier work
[3] = tested on: M. paratuberculosis strain K-10; experiment: Minimal inhibitory concentration (MIC) determination; assay type: cell-based, Mycobacterium paratuberculosis
Excerpt: The exact amount of the antimicrobial used will vary with the particular substance and organism in question. In general, the concentration of the antimicrobial should exceed the approximate minimal inhibitory concentration (MIC) for the particular organism being studied. Determination of MIC is routine in the art and can be accomplished by the skilled technician without undue experimentation. […] In another embodiment, the concentration of Bay y 3118 is 5× the MIC. […] In yet another embodiment, the concentration of D-cycloserine is 5× the MIC.

[4] = 5× the MIC, MSS salt solution (non growing conditions), 37° C., FIG. 3
[5] = 5× the MIC, complete Middlebrook 7H9 medium (growing conditions), 37° C., FIG. 3

NCC[C@H](O)C(=O)N[C@@H]1C[C@H](N)[C@@H](O[C@H]2O[C@H](CN)[C@@H](O)[C@H](O)[C@H]2O)[C@H](O)[C@H]1O[C@H]1O[C@H](CO)[C@@H](O)[C@H](N)[C@H]1O [Amikcin, amikacin]
susceptibility of bacteria in stasis compared with growing bacteria ([1]; concentration not given (5× and 20× MIC tested)): particularly more susceptible | effect on growing bacteria ([1]; concentration not given (5× and 20× MIC tested), growing conditions): bactericidal | effect on non growing bacteria ([1]; concentration not given (5× and 20× MIC tested), non growing conditions): bactericidal

Cl.O=C(O)c1cn(C2CC2)c2c(Cl)c(N3C[C@@H]4CCCN[C@@H]4C3)c(F)cc2c1=O [Bay y 3118]
killing of growing versus non-growing Mycobacterium avium within human macrophages [2]: kill growing but not non-growing | MIC [3]: approximately 0.015 μg/mL | effect on non growing bacteria [1, 4]: does not kill non growing bacteria | effect on growing bacteria [1, 5]: has a bactericidal action on growing bacteria

N[C@@H]1CONC1=O [D-cycloserine]
MIC [3]: approximately 25 μg/mL | effect on non growing bacteria [1, 4]: moderate bactericidal effect | effect on growing bacteria [1, 5]: moderate bactericidal effect | effect on non growing bacteria ([1]; 20× the MIC, MSS salt solution (non growing conditions), 37° C., FIG. 3): moderate bactericidal effect | effect on growing bacteria ([1]; 20× the MIC, complete Middlebrook 7H9 medium (growing conditions), 37° C., FIG. 3): moderate bactericidal effect

From patent US7740867B2, “Method for identification of virulence determinants” (priority 2000, dated 2010)
